In patent US9682953B2, “Amide compounds, compositions and applications thereof” (Advinus Therapeutics Limited, priority 2011, dated 2017):
Read-outs that look alike come from different tables or passages of the source.

Key:
[1] = molecular target: human Fatty Acid Amide Hydrolase (FAAH) (Homo sapiens (Human), UniProt O00519); assay: biochemical; conditions: read-out: hFAAH IC50
[2] = molecular target: rat Fatty Acid Amide Hydrolase (FAAH) (Rattus norvegicus (Rat), UniProt P97612); assay: FAAH in vitro fluorescence assay (AAMCA hydrolysis), rat enzyme; type: biochemical; conditions: rat FAAH; read-out: rFAAH IC50
Chain of rat Fatty Acid Amide Hydrolase (FAAH) (P97612 30-579): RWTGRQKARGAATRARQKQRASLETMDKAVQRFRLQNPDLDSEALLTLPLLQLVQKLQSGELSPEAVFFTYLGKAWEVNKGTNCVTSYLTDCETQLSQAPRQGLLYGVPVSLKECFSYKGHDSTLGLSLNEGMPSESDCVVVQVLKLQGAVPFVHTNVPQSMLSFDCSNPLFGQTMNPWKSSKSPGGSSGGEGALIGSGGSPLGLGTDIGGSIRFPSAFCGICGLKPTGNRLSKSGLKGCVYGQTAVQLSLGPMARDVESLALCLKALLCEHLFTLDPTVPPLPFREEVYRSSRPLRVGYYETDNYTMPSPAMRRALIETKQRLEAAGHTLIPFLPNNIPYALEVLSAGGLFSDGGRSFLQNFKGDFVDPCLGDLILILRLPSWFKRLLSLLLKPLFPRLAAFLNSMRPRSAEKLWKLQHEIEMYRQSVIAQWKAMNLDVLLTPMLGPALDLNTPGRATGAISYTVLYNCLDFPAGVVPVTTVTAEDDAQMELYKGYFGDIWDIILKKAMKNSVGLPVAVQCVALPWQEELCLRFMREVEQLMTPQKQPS
In short: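 Rat FAAH, E. coli-expressed with groEL-groES chaperone, used as enriched membrane extract with 10 μM AAMCA in 50 mM HEPES, 1 mM EDTA, 0.1% BSA, pH 7.4 (1% DMSO final).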

Chain of human Fatty Acid Amide Hydrolase (FAAH) (O00519 30-579): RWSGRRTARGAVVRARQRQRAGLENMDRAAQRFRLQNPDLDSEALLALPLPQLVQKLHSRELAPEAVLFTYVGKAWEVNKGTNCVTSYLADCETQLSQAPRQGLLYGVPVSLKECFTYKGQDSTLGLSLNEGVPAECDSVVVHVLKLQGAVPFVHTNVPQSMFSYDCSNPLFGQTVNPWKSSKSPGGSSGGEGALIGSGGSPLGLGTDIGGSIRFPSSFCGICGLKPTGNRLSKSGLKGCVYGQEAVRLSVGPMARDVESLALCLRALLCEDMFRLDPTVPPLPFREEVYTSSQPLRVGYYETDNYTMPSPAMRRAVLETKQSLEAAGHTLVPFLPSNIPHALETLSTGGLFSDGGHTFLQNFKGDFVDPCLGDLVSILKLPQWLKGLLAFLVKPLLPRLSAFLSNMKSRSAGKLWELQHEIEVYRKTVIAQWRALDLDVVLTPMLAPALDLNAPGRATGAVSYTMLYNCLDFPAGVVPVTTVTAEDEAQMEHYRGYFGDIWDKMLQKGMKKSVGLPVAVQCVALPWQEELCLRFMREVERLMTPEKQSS

Row | SMILES | IC50 ([1]; human FAAH) [nM] | IC50 [2] [nM] | IC50 [1] [nM]
1 | CC(C)c1[nH]ncc1C(=O)NC1CCC(=Cc2cccc(Oc3ccc(C(F)(F)F)cn3)c2)CC1 (stereo not shown) [Example 2.A-39, 5-Isopropyl-N-[4-[[3-[[5-(trifluoromethyl)-2-pyridyl]oxy]phenyl]methylene]cyclohexyl]-1H-pyrazole-4-carboxamide] | 63 | 30 | –
2 | CCN(C)c1ccc(C(=O)NC2CCC(=Cc3cccc(Oc4ccc(C(F)(F)F)cn4)c3)CC2)cn1 (stereo not shown) [Example 5.A-7, 6-[Ethyl(methyl)amino]-N-[4-[[3-[[5-(trifluoromethyl)-2-pyridyl]oxy]phenyl]methylene]cyclohexyl]pyridine-3-carboxamide] | 128 | 15 | –
3 | Cc1[nH]ncc1C(=O)NC1CCC(=Cc2cccc(Oc3ccc(C(F)(F)F)cn3)c2)CC1 (stereo not shown) [Example 2.A-23, 5-Methyl-N-[4-[[3-[[5-(trifluoromethyl)-2-pyridyl]oxy]phenyl]methylene]cyclohexyl]-1H-pyrazole-4-carboxamide] | 5 | 29 | –
4 | Cc1nc(Oc2cccc(C=C3CCC(NC(=O)c4cnc(N)nc4)CC3)c2)ccc1Cl (stereo not shown) [Example 2.E-27, 2-Amino-N-[4-[[3-[(5-chloro-6-methyl-2-pyridyl)oxy]phenyl]methylene]cyclohexyl]pyrimidine-5-carboxamide] | 1 | 17 | –
5 | O=C(NC1CCC(=Cc2cccc(Oc3ccc(C(F)(F)F)cn3)c2)CC1)c1cn[nH]c1 (stereo not shown) [Example 2.A-9, N-[4-[[3-[[5-(Trifluoromethyl)-2-pyridyl]oxy]phenyl]methylene]cyclohexyl]-1H-pyrazole-4-carboxamide] | 2 | 53 | –
6 | Nc1ncc(C(=O)NC2CCC(=Cc3cccc(Oc4ccc(C(F)(F)F)cn4)c3)CC2)cn1 (stereo not shown) [Example 2.C-6, 2-Amino-N-[4-[[3-[[5-(trifluoromethyl)-2-pyridyl]oxy]phenyl]methylene]cyclohexyl]pyrimidine-5-carboxamide] | – | 16 | 1
7 | O=C(NC1CCC(=Cc2cccc(Oc3ccc(C(F)(F)F)cn3)c2)CC1)c1ccc(NC2CC2)nc1 (stereo not shown) [Example 5.A-10, 6-(Cyclopropylamino)-N-[4-[[3-[[5-(trifluoromethyl)-2-pyridyl]oxy]phenyl]methylene]cyclohexyl]pyridine-3-carboxamide] | 25 | 74 | –
8 | N#Cc1nc(Oc2cccc(C=C3CCC(NC(=O)c4ccc(N)nc4)CC3)c2)ccc1C(F)(F)F (stereo not shown) [Example 2.E-28, 6-Amino-N-[4-[[3-[[6-cyano-5-(trifluoromethyl)-2-pyridyl]oxy]phenyl]methylene]cyclohexyl]pyridine-3-carboxamide] | 6 | 75 | –
